Reference: publication PMC7408072 (Pharmaceutics, 2020)
Peptide text beside a SMILES is read from it. * marks the point of attachment. 5TAMRA = CN(C)c1ccc2c(c1)Oc1cc(N(C)C)ccc1C21OC(=O)c2cc(C(=O)*)ccc21

Experiments:
[1] = test system: bovine BCEC monolayers co-cultured with rat astrocytes; assay: Barrier integrity by transendothelial electrical resistance (TEER); type: cell-based; conditions: 3 h, bovine BBB model; for barrier integrity (TEER before and after peptide application): 100 µM peptide, 37 °C, N = 3, n = 3
Experimental: (§1) Transport across bovine or mouse BCEC monolayers co-cultured with rat astrocytes was carried out over 3 h at 37 °C with horizontal shaking (90 rpm). TEER was measured at room temperature using an Endohm 12 cup (World Precision Instruments, Sarasota, FL, USA) connected to a Millicell-ERS device (Millipore, Bedford, MA, USA). TEER was measured before application of the peptides and after each experiment. The bovine model had initial TEER values ranging from 771 to 1332 Ω·cm^2, whereas the mouse model had initial TEER values ranging from 136 to 217 Ω·cm^2.

[2] = test system: bovine BCECs co-cultured with rat astrocytes; assay: Peptide uptake into endothelial cells and astrocytes by confocal microscopy after fixation (bovine BBB model); type: cell-based; conditions: fixed cells; for peptide uptake in the astrocytes, 3 h: 100 µM peptide applied luminally; for peptide uptake in the astrocytes, 3 h / peptide uptake in the endothelial cells, 3 h: TAMRA fluorescence, confocal microscopy; for peptide uptake in the endothelial cells, 3 h / peptide uptake in the astrocytes, 15 min / peptide uptake in the endothelial cells, 15 min: 100 µM peptide; for peptide uptake in the astrocytes, 15 min / peptide uptake in the endothelial cells, 15 min: confocal microscopy (Figure S3)
Experimental: as §1, with “Transport across bovine or mouse BCEC monolayers co-cultured with rat astrocytes was carried out over 3 h at 37 °C with horizontal shaking (90 rpm).” left out
To visualize the TAMRA-peptide taken up by the endothelial cells and astrocytes, the remaining filters (one per batch) from the permeation study using the in vitro bovine BBB model were prepared for confocal microscopy. After removal of the peptide solutions, the cells were fixed with 3% paraformaldehyde in PBS for 15 min at room temperature with horizontal shaking (90 rpm). The cells were washed thrice with PBS prior to permeabilization in 0.1% Triton X-100 in PBS for 5 min and blocking in 2% BSA in PBS for 30 min at room temperature with horizontal shaking (90 rpm). The filter inserts were cut out, divided into smaller pieces, and transferred to a 48-well plate to stain zonula ocludens-1 (ZO-1) in the BCECs and F-actin in the astrocytes. Filter pieces with BCECs facing upwards were incubated with a primary antibody directed against ZO-1 (1:100 in PBS with 2% BSA; Thermo Fischer Scientific, Bedford, MA, USA, no. 617300) for 2 h at room temperature. Subsequently, the filters were washed thrice for 5 min in PBS with 2% BSA prior to 30 min incubation with an Alexa-488-conjugated secondary antibody (1:100 in PBS with 2% BSA; Thermo Fischer Scientific, Bedford, MA, USA, no. A11008). Filter pieces with astrocytes facing upwards were incubated with Alexa-488-conjugated phalloidin (1:133 in PBS with 2% BSA; Thermo Fischer Scientific, Bedford, MA, USA) for 30 min at room temperature and washed thrice for 5 min in PBS with 2% BSA. The filter pieces were mounted on glass slides under coverslips using Immu-Mount™ mounting media and imaged using single wavelength excitation a Zeiss 510 laser-scanning confocal microscope (Carl Zeiss, Jena, Germany).

[3] = test system: filter-grown BCECs co-cultured with rat astrocytes; assay: Cellular viability, XTT assay; type: cell-based; conditions: 100 µM peptide, 3 h, bovine BCEC/rat astrocyte co-culture, N = 3, n = 3
Experimental: Briefly, the XTT labelling mixture was prepared by mixing electron coupling reagent with XTT labelling reagent at a 1:50 ratio. After peptide incubation, the monolayers were washed twice with 37 °C hHBSS. We applied 300 µL and 1 mL 37 °C hHBSS to the apical and basolateral compartments, respectively, prior to the addition of 150 µL XTT labelling mixture. The filters were incubated at 37 °C with horizontal shaking (90 rpm) for 1 h. Two 100 µL samples were withdrawn from the apical compartments and the absorbance measured at 466 nm using a SPECTROstar Nano plate reader (BMG Labtech, Offenburg, Germany). The relative cell viability was calculated as follows: Relative viability (%)=Asample−ASDS/Abuffer−ASDS×100% where Asample is the absorbance of the test sample, ASDS is the absorbance of the negative control (100% dead cells), and Abuffer is the absorbance of the positive control (100% viable cells).

Tissue distribution = type: in vivo, NMRI mice
Experimental: Following 1 h of circulation, the mice were deeply anesthetized by i.p. injection of 0.05 mL/10 g body weight Ketaminol/Dexdormitor (2.25 mg ketamine/0.03 mg […] per 10 g body weight in 0.9% NaCl). The chest cage was opened and the mice transcardially perfused with 0.01 M PBS (pH 7.4) prior to isolation of the brain, heart, lungs, spleen, kidney, liver, and 2 cm of the upper part of the intestine. All tissues were immediately put on ice and kept at −80 °C until analysis.
The tissues were homogenized in 1 mL of ice-cold lysis buffer using a 7-mL Dounce tissue grinder set (Merck, St. Louis, MO, USA). Homogenates were left on ice for 10 min prior to centrifugation at 14,000× g and 4 °C for 10 min. Supernatants (100 µL) were transferred to a black clear-bottom 96-well plate for quantification of the TAMRA-peptides using a NovoStar fluorescence plate reader (BMG Labtech, Offenburg, Germany) with excitation and emission set to 542 and 568 nm, respectively. The molar peptide amounts were calculated using standard curves that were freshly prepared in lysates from relevant blank tissue at concentrations ranging from 30 nM to 2 µM.

[4] = 3 nmol/g i.v., 1 h, NMRI mice, comparison among the Tat-conjugates

Row | SMILES | barrier integrity (TEER before and after peptide application) [1] | peptide uptake in the astrocytes, 3 h [2] | peptide uptake in the endothelial cells, 3 h [2] | cell viability compared to media-treated control cells [3] | barrier integrity (TEER) upon co-application of FITC-dextran with peptide ([1]; 1 mg/mL FITC-dextran with 100 µM peptide) | peptide uptake in the astrocytes, 15 min [2] | peptide uptake in the endothelial cells, 15 min [2] | TAMRA fluorescence in the kidney (Tissue distribution; [4]) | tissue uptake at 1 h (Tissue distribution; male, NMRI, mouse, brain, iv, 3 nmol/g body weight, mice, tissue distribution (abstract), read-out: brain accumulation) | amount in mouse brain homogenate (Tissue distribution; 3 nmol peptide/g body weight, tail vein, 1 h circulation, perfused NMRI mice, TAMRA fluorescence in whole tissue homogenate, mean ± SD, N = 4-6) | accumulation in the intestines (Tissue distribution; [4]) | TAMRA fluorescence in the brain homogenates (comparison) (Tissue distribution; 3 nmol/g i.v., 1 h, NMRI mice, unpaired t-test) | accumulation in the liver (Tissue distribution; [4])
1 | CC[C@H](C)[C@H](NC(=O)[C@H](CO)NC(=O)[C@H](CO)NC(=O)[C@H](CC(C)C)NC(=O)[C@H](CCCCN)NC(=O)c1ccc2c(c1)C(=O)OC21c2ccc(N(C)C)cc2Oc2cc(N(C)C)ccc21)C(=O)N[C@@H](CCC(=O)O)C(=O)N[C@@H](CO)C(=O)N[C@@H](CC(=O)O)C(=O)N[C@H](C(=O)O)C(C)C [TAMRA-NR2B9c] (5TAMRA-KLSSIESDV-OH) | did not affect the barrier integrity | not observed | not observed | did not decrease cell viability |  |  |  |  |  |  |  |  | 
2 | CC[C@H](C)[C@H](NC(=O)CCOCCOCCN(CCOCCOCCC(=O)N[C@H](C(=O)N[C@@H](CCC(=O)O)C(=O)N[C@H](C(=O)N[C@@H](CC(=O)O)C(=O)N[C@H](C(=O)O)C(C)C)[C@@H](C)O)[C@@H](C)CC)C(=O)[C@H](CCCNC(=N)N)NC(=O)[C@H](CCCNC(=N)N)NC(=O)[C@H](CCCNC(=N)N)NC(=O)[C@H](CCC(N)=O)NC(=O)[C@H](CCCNC(=N)N)NC(=O)[C@H](CCCNC(=N)N)NC(=O)[C@H](CCCCN)NC(=O)[C@H](CCCCN)NC(=O)[C@H](CCCNC(=N)N)NC(=O)CNC(=O)[C@H](Cc1ccc(O)cc1)NC(=O)c1ccc2c(c1)C(=O)OC21c2ccc(N(C)C)cc2Oc2cc(N(C)C)ccc21)C(=O)N[C@@H](CCC(=O)O)C(=O)N[C@H](C(=O)N[C@@H](CC(=O)O)C(=O)N[C@H](C(=O)O)C(C)C)[C@@H](C)O [TAMRA-Tat-N-dimer] | did not affect the barrier integrity | not in the astrocytes | low level | slight, but non-significant, decrease | did not affect barrier integrity | not in the astrocytes | Minor uptake | more fluorescence in the kidney than TAMRA-Tat or TAMRA-Tat-NR2B9c | 0.25 %ID/g |  |  |  | 
3 | CN(C)c1ccc2c(c1)Oc1cc(N(C)C)ccc1C21OC(=O)c2cc(C(=O)N[C@@H](Cc3ccc(O)cc3)C(=O)NCC(=O)N[C@@H](CCCNC(=N)N)C(=O)N[C@@H](CCCCN)C(=O)N[C@@H](CCCCN)C(=O)N[C@@H](CCCNC(=N)N)C(=O)N[C@@H](CCCNC(=N)N)C(=O)N[C@@H](CCC(N)=O)C(=O)N[C@@H](CCCNC(=N)N)C(=O)N[C@@H](CCCNC(=N)N)C(=O)N[C@@H](CCCNC(=N)N)C(=O)O)ccc21 [TAMRA-Tat] | significant decrease in TEER | observed in both cell types | observed in both cell types | slight, but non-significant, decrease |  | uptake | uptake |  |  | 0.4% ± 0.1% | superior | slightly higher levels | 
4 | CC[C@H](C)[C@H](NC(=O)[C@H](CO)NC(=O)[C@H](CO)NC(=O)[C@H](CC(C)C)NC(=O)[C@H](CCCCN)NC(=O)[C@H](CCCNC(=N)N)NC(=O)[C@H](CCCNC(=N)N)NC(=O)[C@H](CCCNC(=N)N)NC(=O)[C@H](CCC(N)=O)NC(=O)[C@H](CCCNC(=N)N)NC(=O)[C@H](CCCNC(=N)N)NC(=O)[C@H](CCCCN)NC(=O)[C@H](CCCCN)NC(=O)[C@H](CCCNC(=N)N)NC(=O)CNC(=O)[C@H](Cc1ccc(O)cc1)NC(=O)c1ccc2c(c1)C(=O)OC21c2ccc(N(C)C)cc2Oc2cc(N(C)C)ccc21)C(=O)N[C@@H](CCC(=O)O)C(=O)N[C@@H](CO)C(=O)N[C@@H](CC(=O)O)C(=O)N[C@H](C(=O)O)C(C)C [TAMRA-Tat-NR2B9c] (5TAMRA-YGRKKRRQRRRKLSSIESDV-OH) | significant decrease in TEER | observed in both cell types | observed in both cell types | slight, but non-significant, decrease |  | uptake | uptake |  |  |  |  |  | to a greater extent than TAMRA-Tat and TAMRA-Tat-N-dimer
